This note sets out measurements from patent publication EP4711377A1, “STEROID COMPOUND, PREPARATION METHOD THEREFOR, AND USE THEREOF” (Shujing Biopharma Co., Ltd, priority 2023, dated 2024).

Where two headings read alike, the source gives them in different places.

The nature of series [1]: in vivo pharmacokinetic experiment in mice. On the set-up: species or system ICR mice. To be noted: male, ICR, mouse; oral intragastric administration 10 mg/kg, single, plasma. On the procedure:
Male ICR mice were subjected to oral intragastric administration. The plasma concentrations of the compounds of the present disclosure in the mice were measured, the PK parameters were calculated, and pharmacokinetic evaluation was performed on the compounds of the present disclosure.
Drug preparation: according to the weight of the weighed drug, the preparation volume was calculated; 5% of DMSO and 5% of HS-15 were added sequentially; after the drug was fully dissolved, 90% of a 20% aqueous β-cyclodextrin solution was added, and the mixture was well mixed for later use.
Route of administration: oral intragastric administration, at a dose of 10 mg/kg.
Administration frequency and duration: single administration.
ICR mice were stratified according to body weight and then randomly grouped, with 9 mice per group. The mice were fasted overnight prior to the experiment. The mice were subjected to oral intragastric administration. At 0 h, 0.167 h, 0.333 h, 0.5 h, 1 h, 2 h, 4 h, 6 h, 8 h, 12 h, and 24 h, 50 µL of blood was collected from the fundus vein of each mouse into a sample tube containing heparin sodium as an anticoagulant, and then the tube was placed in wet ice and centrifuged at 4000 r·min^-1 for 10 min. The plasma was separated, and cryopreserved in a refrigerator at -80 °C for testing.
The concentrations of the plasma samples were measured by high-performance liquid chromatography-tandem mass spectrometry (LC-MS/MS). The retention times of the compounds and internal standard, chromatographic acquisitions, and integrals of chromatograms were processed using the software Analyst (AB SCIEX), and statistical analysis of the data was performed using the software Microsoft office. The plasma concentrations were processed using a non-compartmental model of the pharmacokinetic software WinNonlin™ Version 6.3 (Pharsight, Mountain View, CA), and the pharmacokinetic parameters were calculated using a linear log-trapezoidal method. Table 4. Results of pharmacokinetic experiment in mice

A further series has as its target GABAa receptor (α1β2γ2) (Homo sapiens, UniProt P14867+P47870). The series can be described thus: in vitro GABAa receptor (α1β2γ2) cellular activity assay, manual whole-cell patch clamp, enhancement of currents induced by 1 µM GABA. It is filed as cell-based. To be noted: for Emax compared to Sage-217: conclusion in words from Table 1-2. How it is done:
The cells used in this experiment were derived from a CHO cell line that stably expressed normal GABAa receptor functions after transfection with human GABAa receptor α1, β2, and γ2 subunit cDNAs. The cell line was constructed by B'sys GmbH. The cells were cultured in a medium (purchased from Invitrogen) containing the following components: DMEM culture medium; 10% (v/v) inactivated fetal bovine serum; 5 µg/mL Puromycin; 250 µg/mL Hygromycin B; and 100 µg/mL Zeocin. The cells were grown in culture dishes containing the above medium and cultured in an incubator at 37 °C with 5% CO2. 12 h to 24 h before the electrophysiological experiment, the cells were transferred onto circular glass slides placed in culture dishes, and were grown under the same medium and culture conditions as above. The density of cells on each circular glass slide was required to meet the requirement that the overwhelming majority of cells were independent and individual.
In this experiment, a manual patch-clamp system HEKA EPC10 USB signal amplifier and digital conversion system (purchased from HEKA Electronics, Germany) were used for whole-cell current recording. The circular glass slides with surface-grown CHO GABAa cells (see the cell culture and requirement section above) were taken out from the culture dishes and then placed into an electrophysiological recording chamber under an inverted microscope. The recording chamber was continuously perfused with extracellular fluid (approximately 1-2 mL/min). In the experiment, the whole-cell current recording technique was employed to record chloride ion currents of GABAa channels. 1 µM GABA was used to activate chloride ion currents of GABAa channels on each cell as an initial control (the reason for using 1 µM GABA concentration was that: this concentration was an effective activation concentration for the GABAa ion channel agonist GABA on the cells used in this experiment, falling between 10% and 20%). Unless otherwise specified, the experiment was performed at conventional room temperature (about 25 °C), and only cells meeting the electrophysiological recording criteria were adopted. In the experiment, the cells were ruptured and sealed, and were clamped at -80 mV after entering a whole-cell state. 1 µM GABA acted on the cells through the drug perfusion system to induce chloride ion currents of GABAa channels; the action time was about 4 s, and the current magnitude was used as the initial control value. Subsequently, the cells were perfused and incubated with the test concentration compound for 3 min, and then a mixed solution of 1 µM GABA and the corresponding test concentration compound was applied to act on the cells to induce currents, so as to observe the enhancing effect of the test compound on the currents induced by 1 µM GABA. When the cell state stabilized, the test compound would be applied from low to high concentrations to act on the same cell. In the experiment, to avoid current reduction caused by desensitization of GABAa ion channels, the interval time for the test substance acting on the cells through the drug perfusion system was at least 180 s.
The experimental data were analyzed using data analysis software provided by HEKA Patchmaster, Microsoft Excel, and Graphpad Prism.

Series [2] is described as follows: acute toxicity experiment and side effect observation in mice. It is filed as in vivo, ICR mice. As to conditions: both sexes, ICR, mouse, in vivo; single oral intragastric administration at 2.5, 5, 10, 20 mg/kg; 14 days observation; read-out: maximum tolerated dose (MTD). On the procedure:
(§1) This experiment aimed to evaluate the acute toxic manifestations of the test compounds following single oral intragastric administration in ICR mice, observe the recovery status of the ICR mice within 14 days post-administration, and determine the maximum tolerated dose of the test compounds.
(§2) 65 male and 65 female ICR mice were purchased from Shanghai Jihui Laboratory Animal Care Co., Ltd. After 4-5 days of acclimatization of the experimental animals, the formal experiment was carried out. The mice were housed at 5 mice/cage in a 12/12-hour light/dark cycle at a room temperature of 23±2 °C, with free access to food and water.
(§3) Based on the Vehicle in section 2.4, a certain weight of the test compound was weighed, 5% of the total volume of a DMSO liquid was first added, and the mixture was vortexed. After the drug was completely dissolved, 5% of the total volume of an HS-15 liquid was added, and the mixture was well mixed and vortexed. Finally, a 20% hydroxypropyl-β-cyclodextrin solution was added according to the remaining volume proportion, forming a 2 mg/mL clear and homogeneous solution. The solution was then proportionally diluted in a gradient to concentrations of 1 mg/mL, 0.5 mg/mL, and 0.25 mg/mL (the administration volume was 10 mL/kg).
(§4) • a. About 12-18 h before testing, animals were weighed and then grouped, and fasted overnight (water was accessible). • b. The next day, the mice were reweighed according to groups. Ten mice per group (5 males and 5 females/dose) were subjected to oral intragastric administration of the test compound or Vehicle. The day of administration was designated as Day 1. • c. […] Observation period for Day 2 to Day 14: 9:00 to 12:00.
(§5) • (1) The clinical symptoms and mortality in each group of ICR mice post-administration were recorded to determine the maximum tolerated dose. • (2) The symptom alleviation and recovery status in each group of ICR mice post-administration were recorded.

For another series, the system named is ICR mice. The description is as above. It is filed as in vivo. To be noted: for clinical symptoms / death: 4-8 h post-administration; for cage-side observations / main adverse reactions / tolerability: single oral administration, 2.5 to 20 mg/kg. How it is done:
as §1, §2, §3, §4, §5

[3] abbreviates: positive modulator enhancing GABAa receptor currents induced by 1 µM GABA, CHO cells, read-out: EC50.
[4] abbreviates: all dose groups (2.5/5/10/20 mg/kg).

GABAa receptor (α1β2γ2), sequence (P14867 28-456): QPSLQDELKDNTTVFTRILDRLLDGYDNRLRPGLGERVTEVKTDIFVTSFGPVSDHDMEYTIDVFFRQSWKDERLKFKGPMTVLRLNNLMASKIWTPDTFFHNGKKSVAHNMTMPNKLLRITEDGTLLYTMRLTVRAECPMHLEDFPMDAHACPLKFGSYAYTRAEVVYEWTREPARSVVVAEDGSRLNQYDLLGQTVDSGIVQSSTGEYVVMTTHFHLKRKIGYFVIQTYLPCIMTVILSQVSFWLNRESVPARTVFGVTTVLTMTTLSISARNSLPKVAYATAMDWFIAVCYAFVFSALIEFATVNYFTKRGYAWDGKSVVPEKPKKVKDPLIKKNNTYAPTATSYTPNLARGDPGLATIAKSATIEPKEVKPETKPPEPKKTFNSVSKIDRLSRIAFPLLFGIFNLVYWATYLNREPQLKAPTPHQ
GABAa receptor (α1β2γ2), sequence (P47870 25-512 limits assumed): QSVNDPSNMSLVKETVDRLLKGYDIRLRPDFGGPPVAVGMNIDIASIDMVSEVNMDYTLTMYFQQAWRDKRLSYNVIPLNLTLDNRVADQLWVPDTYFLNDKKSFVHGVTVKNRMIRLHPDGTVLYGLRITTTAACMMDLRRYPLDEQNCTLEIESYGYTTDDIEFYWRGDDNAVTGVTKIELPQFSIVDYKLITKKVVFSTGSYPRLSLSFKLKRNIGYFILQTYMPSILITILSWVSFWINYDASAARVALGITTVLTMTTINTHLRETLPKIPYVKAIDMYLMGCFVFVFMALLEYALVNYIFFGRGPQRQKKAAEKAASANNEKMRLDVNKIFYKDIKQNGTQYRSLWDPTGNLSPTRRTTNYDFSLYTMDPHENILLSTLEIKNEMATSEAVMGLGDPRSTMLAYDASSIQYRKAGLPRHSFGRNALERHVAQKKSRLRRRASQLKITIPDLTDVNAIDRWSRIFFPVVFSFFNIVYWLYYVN
GABAa receptor (α1β2γ2), sequence (P18507 40-475 partner): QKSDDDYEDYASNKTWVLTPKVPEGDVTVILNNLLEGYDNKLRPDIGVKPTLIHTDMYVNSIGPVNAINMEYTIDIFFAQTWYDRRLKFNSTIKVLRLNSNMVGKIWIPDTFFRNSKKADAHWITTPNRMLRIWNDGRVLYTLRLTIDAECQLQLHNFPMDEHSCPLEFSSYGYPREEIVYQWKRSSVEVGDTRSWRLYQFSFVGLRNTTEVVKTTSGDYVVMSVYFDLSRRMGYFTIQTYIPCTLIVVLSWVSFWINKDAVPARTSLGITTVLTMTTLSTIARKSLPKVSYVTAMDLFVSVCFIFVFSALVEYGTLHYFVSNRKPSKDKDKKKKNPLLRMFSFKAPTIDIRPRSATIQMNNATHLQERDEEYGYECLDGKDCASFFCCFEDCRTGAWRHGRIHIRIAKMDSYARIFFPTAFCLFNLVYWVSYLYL

In general, AUC(0-t) refers to exposure summed from dosing to a finite time, without extrapolation to infinity. Low values mean less exposure, high ones more exposure. In general, Cmax refers to the peak of the concentration-time curve. The Tmax is the time from dosing to the highest level. One may read the half-life as the time in which the quantity being followed falls by half. The low end stands for fast loss, the high end for slow loss. What is called EC50 is the concentration giving half of the maximal effect. As usually defined, the MTD is the highest dose tested that stayed within the study's limit of toxicity. Regarding `C[C@@H]1C[C@H](C(=O)Cn2ncnn2)[C@@]2(C)CC[C@H]3[C@@H](CC[C@@H]4C[C@](C)(O)[C@@H](C)C[C@@H]43)[C@H]12` [Example 9, 1-((2S,3S,5R,8R,9R,10S,13S,14S,15R,17S)-3-Hydroxy-2,3,13,15-tetramethylhexadecahydro-1H-cyclopenta[a]phenanthren-17-yl)-2-(2H-tetrazol-2-yl)ethan-1-one], in series [1], the AUC(0-t) was 23600 ng·h/mL, the Cmax came to 3480 ng/mL, the Tmax was found to be 19.8 min and the half-life was 141 min. Moreover, the “Emax compared to Sage-217” value on GABAa receptor (α1β2γ2) is listed as “lower Emax compared to Sage-217”. At GABAa receptor (α1β2γ2) (setting [3]), the EC50 was found to be 40 nM. Besides, in series [2], the MTD at 14 days was found to be 20 mg/kg. Further, the clinical symptoms result in the series on ICR mice (20 mpk group) was “gait instability”. In the series with ICR mice (setting [4]), the death result is “no death occurred”. The clinical symptoms entry in the series with ICR mice (all lower dose groups (below 20 mpk)) is given as “returned to normal”. Also, in the series on ICR mice, the “cage-side observations / main adverse reactions” value was “prostration and mild loss of righting reflex observed in some of the mice at high doses”; the tolerability entry is reported as “all animals could tolerate it”.

As for `C[C@H]1C[C@H]2[C@H](CC[C@@H]3[C@@H]2CC[C@]2(C)[C@@H](C(=O)Cn4ncnn4)CC[C@@H]32)C[C@]1(C)O` [Example 20, 1-((2S,3S,5R,8R,9R,10S,13S,14S,17S)-3-Hydroxy-2,3,13-trimethylhexadecahydro-1H-cyclopenta[a]phenanthren-17-yl)-2-(2H-tetrazol-2-yl)ethan-1-one], in series [1], the AUC(0-t) was found to be 32200 ng·h/mL, the Cmax came to 2580 ng/mL, the Tmax was found to be 30 min and the half-life was 155 min. At GABAa receptor (α1β2γ2), the “Emax compared to Sage-217” value is “lower Emax compared to Sage-217”. Besides, the EC50 at GABAa receptor (α1β2γ2) (setting [3]) stood at 110 nM. Besides, the activation at 0.1 µM on GABAa receptor (α1β2γ2) (single concentration 0.1 µM, relative enhancement amplitude of GABAa receptor currents induced by 1 µM GABA, CHO cells, read-out: Agonist ratio) was found to be 970%. Besides, the MTD at 14 days in series [2] is 20 mg/kg. Also, in the series with ICR mice (setting [4]), the death entry is “no death occurred”. Moreover, in the series with ICR mice, the “cage-side observations / main adverse reactions” value was “ataxia that aggravated with the increase of dose” and the tolerability result is on record as “all animals could tolerate it”.

As to `C[C@@]1(O)CC[C@H]2[C@H](CC[C@@H]3[C@@H]2CC[C@]2(C)[C@@H](C(=O)Cn4cc(C#N)cn4)CC[C@@H]32)C1` [Sage-217, reference compound], in series [1], the AUC(0-t) is 9160 ng·h/mL, the Cmax came to 1510 ng/mL and the Tmax is 60 min. For the same compound, the EC50 at GABAa receptor (α1β2γ2) is 120 nM. Moreover, in series [2], the MTD at 14 days is 10 mg/kg. Also, the mortality result with ICR mice (20 mg/kg group, single oral intragastric administration) is “mortality was observed in both male and female mice”. In the series on ICR mice (20 mpk group), the clinical symptoms entry is “prostration symptoms”. For the same compound, the death with ICR mice (20 mpk group, 5 males and 5 females) is 1 male and 2 female mice died. The “cage-side observations / main adverse reactions” value in the series on ICR mice is listed as “ataxia that aggravated with the increase of dose, as well as severe loss of righting reflex observed at high doses”.
